Assay: Stability in aqueous solution by UV-Vis
Format: physicochemical
Conditions: hexafluorophosphate buffered DMSO:water 50:50, pH 7.4, after 6 hours
Experimental: S7.1 Stability in Aqueous Solution
Stability studies were performed for the perenosins in aqueous solution using UV-Vis spectroscopy to probe the lifetime of compounds 1d and 2-8 over the course of the transport experiments. The receptors (10 μL, 25 mM) were added to a hexafluorophosphate buffered (100 mM) DMSO:water 50:50 solution (4990 μL) and the pH was adjusted to either 7.2 or 4.6 using hexafluorophosphoric acid. Spectra were collected at 1 minute intervals over a period of 30 minutes.
Figure S50. Absorbance spectra taken over 30 minutes of 1d (25 mM) in a hexafluorophosphate buffered (100 mM) DMSO:water 50:50 mixture. a) pH 7.2 b) pH 4.6 […]
Figure S51. Absorbance spectra taken over 30 minutes of 2 (25 mM) in a hexafluorophosphate […]
The spectra obtained at pH 7.2 for compounds 1d and 2-8 show no notable change in the […]
conditions. However, the spectra obtained at pH 4.6 for compounds 1d and 2-4 show a decreasing peak at ~400 nm corresponding to the perenosins, and an increasing peak at ~300 nm corresponding to the breakdown product (both are marked with an arrow). The change in spectra […]
Spectra were collected periodically over 72 hours to monitor the change in the UV -vis absorbance.
Figure S58. Absorbance spectra taken periodically over 72 hours of 1d (25 mM) in a hexafluorophosphate buffered (100 mM) DMSO:water 50:50 mixture at pH 7.4 […]

CCCCCc1cc2cc(C)cc(/N=C/c3[nH]c(C)c(CCCCC)c3C)c2[nH]1 [Perenosin 6]
solubility during 72 h stability study: poor solubility

Source: PMC5570892, “Indole-based perenosins as highly potent HCl transporters and potential anti-cancer agents” (Scientific Reports, 2017)
